Legend:
[1] = tested on: rice shoots transformed with FMP38e; assay: Bleaching of rice shoots on MS/2 with tembotrione; type: in vivo; conditions: evaluation 2 weeks later
Description: Rice transformation was achieved using methods well known in the art. Briefly, the Agrobacterium tumefaciens mediated transformation of rice was performed using immature embryos, from the restorer line 6G4317. Briefly, panicles from donor plants were harvested 8-12 days after pollination. The lemma of the immature seed was removed. Seeds were thereafter sterilized using a NaOCl based solution and Tween. The seeds were preinduced with […]. Agrobacterium tumefaciens cells are then co-cultivated with the preinduced seeds in presence of acetosyringone for 4 days at 24° C. in the dark. Thereafter, coleoptile from embryos are removed and washed, then put on a media supplemented with phosphinothricin for 3 weeks at 28° C. under a photoperiod rhythm of 16 hours. Then the growing calli were cut off from the embryos, and transferred to fresh media containing triacillin, phosphinothricin, L-proline and copper (II) sulfate.
For each callusline and per Tembotrione concentration, 3 shoots, and randomly isolated from different callus pieces, were transferred to MS/2 with Tembotrione. As a general rule, transfer of the shoots from regeneration medium to MS/2 occurred 9 weeks after calli had been put on regeneration medium.
Cultures were incubated at 26.5° C. (16 hrs. photoperiod) and evaluation of symptoms occurred 2 weeks later.
New developing leaves of the shoots transferred have been scored on the basis of bleaching and categorized in 3 groups:
a) no bleaching b) intermediate bleaching c) complete bleaching
Within the category ‘intermediate bleaching’ a distinction has been made between shoots having new leaves showing only very little bleaching symptoms and thus tending to green leaves, and shoots with new leaves almost completely bleached.

[2] = tested on: T0 rice plants containing FMP38e; assay: Rice glasshouse trial, response to tembotrione; type: in vivo; conditions: 100 g AI/ha, 7 DAT
Description: T0 rooted plantlets (either selected on phosphinothricin alone or on phosphinothricin supplemented with tembotrione) were transferred to soil in the glasshouse. Following an acclimation period, sufficiently grown plants were treated with the different HPPD inhibitor herbicides. As an example, T0 plants were sprayed with tembotrione of formulation type WP20 100 g AI/ha supplemented with ammonium sulfate and methyl ester raps oil. Seven days after the spray application, the symptoms due to the application of the herbicide were evaluated and compared the symptoms observed on wild type plants submitted to the same treatment.
The plants were classified in three categories based on the phenotype developed in response to the herbicide seven days after the treatment.

[3] = tested on: tobacco calli containing HPPD SEQ ID No. 7 (Synechococcus sp.); assay: Rooting of calli on media with tembotrione; type: cell-based, Nicotiana tabacum; conditions: 6 to 12 weeks
Description: The leaf disks were co-cultivated for 2 days with Agrobacterium tumefaciens cells containing either the binary vector FMP38ebv or AtHPPDbv. Then the leaf disks were transferred to a media allowing the regeneration of shoots for 6 weeks on MS (Musharige and Skoog, (1962), Physiol Plant 15(3): 473-497) media supplemented with BAP ([…]; Benzylaminopurine), carbenicillin ([…]), cefotaxine ([…]), kanamycin (75 mg/mL) and tembotrione (10^−6 M)
Regenerated calli were transferred on media to induce the development of roots for 6 to 12 weeks: MS (1/2), supplemented with carbenicillin (250 mg/mL), cefotaxine (250 mg/mL), kanamycin (75 mg/mL), and tembotrione (10^−6 M).
Regenerated shoot calli from a cell transformed with a nucleic acid sequence encoding an HPPD comprising SEQ ID No. 11 (Arabidopsis thaliana) or SEQ ID No. 7 (Synechococcus sp.) were transferred to a media inducing root growth which media was further supplemented with the HPPD inhibitor tembotrione for 6 to 12 weeks.

[4] = molecular target: T1, Arabidopsis thaliana HPPD "SEQ ID No. 10" (Arabidopsis thaliana, UniProt P93836); assay: HPLC assay of HPPD activity, in vitro kinetic properties; type: biochemical
T1 construct: Preparation of Synechococcus sp; Ala + 6xHis (N); made in house; host or cells: E. coli K-12 BL21 (pQE30-AtHPPD)
T1 sequence (P93836 with tags, fused parts or gaps): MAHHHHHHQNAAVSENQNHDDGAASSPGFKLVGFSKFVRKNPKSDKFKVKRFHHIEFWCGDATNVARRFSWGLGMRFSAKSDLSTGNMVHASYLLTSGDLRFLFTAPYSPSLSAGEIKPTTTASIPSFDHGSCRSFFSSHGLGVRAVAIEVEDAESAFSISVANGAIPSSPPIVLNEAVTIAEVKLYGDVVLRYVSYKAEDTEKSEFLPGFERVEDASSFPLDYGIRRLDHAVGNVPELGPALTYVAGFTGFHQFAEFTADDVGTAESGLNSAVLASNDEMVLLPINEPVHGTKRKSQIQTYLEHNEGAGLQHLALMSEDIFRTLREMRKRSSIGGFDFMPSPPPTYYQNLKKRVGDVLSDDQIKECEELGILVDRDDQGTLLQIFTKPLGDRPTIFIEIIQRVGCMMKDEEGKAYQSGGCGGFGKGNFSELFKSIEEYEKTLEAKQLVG
Description: Km, Vmax, and kcat values for different HPPD enzyme preparations and Ki, K1=Kon, and K−1=Koff for different HPPD inhibitors were determined using a HPLC assay for measurements of HPPD activity. […] All assays were started by the addition of HPPD enzyme to the assay mixture and stopped at a series of times between 0 and 240 s by addition of 200 μl of the reaction mixture to reaction assay tubes containing 20 μl 10% perchloric acid. Precipitated protein was pelleted by a 5 minute centrifugation at 10,000 g.
For Km and Vmax value determinations the initial rates of the HPPD reaction at different substrate concentrations were determined from plots of HGA formed versus time and fitted to the Michaelis-Menten equation for unireactant enzymes using the ID Business Solutions Ltd. (idbs.com) XLfit software suite.
In below given table 1, “Km” (Michaelis-Menten constant) means the kinetic parameter that is used to characterise an enzyme, and it is defined as the concentration of substrate that permits half maximal rate of the reaction. Km is further defined as the substrate concentration at which the reaction rate reaches half of its maximum value (Vmax/2) where Vmax has the meaning of being the maximum velocity of the reaction.
Kon=K1 equals the association rate constant of the […] binding and Koff=K−1 equals the rate constant of the enzyme-inhibitor complex dissociation. Ki defines the inhibition constant.

In the case of `CS(=O)(=O)c1ccc(C(=O)C2C(=O)CCCC2=O)c(Cl)c1COCC(F)(F)F` [Tembotrione, 2-[2-chloro-4-(methylsulfonyl)-3-[(2,2,2,-tri-fluoroethoxy)methyl]benzoyl]-1,3-cyclo-hexanedione], the “No of shoots completely bleached” value ([1]; 1 μM) is reported as 0, the “No of shoots with intermediate bleaching” value ([1]; 1 μM) is reported as 4 and the “No of shoots without bleaching” value ([1]; 1 μM) is reported as 38. The “No of shoots with intermediate bleaching” value ([1]; 5 μM) was 35, the “No of shoots without bleaching” value ([1]; 5 μM) was 3 and the “Class I (no injuries), number of plants” value [2] was 9. For the same compound, the “Class II (injury: 10-40%), number of plants” value [2] was 8, the “Class III (injury: 41-100%), number of plants” value [2] was 8 and the “% Elongation & rooting on 10^−6 M tembotrione” value [3] was 80%. The kon ([4]; read-out: k1 (Kon)) was 230000 M⁻¹ s⁻¹ and the koff ([4]; read-out: k−1 (Koff)) was 0.0035 s⁻¹.

Source: patent US20150159167A1, “Plants Tolerant to HPPD Inhibitor Herbicides” (Bayer CropScience AG, priority 2009, published 2015)
